In patent US20160333419A1, “GENE SIGNATURES ASSOCIATED WITH SENSITIVITY TO MDM2 INHIBITORS” (DAIICHI SANKYO COMPANY, LIMITED, priority 2014, published 2016):

Key:
HuCCT1 = assay: OncoPanel cytotoxicity assay; assay type: cell-based; conditions: Homo sapiens, HuCCT-1, 72 hour incubation
Outline: (§1)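 Cells grown in RPMI 1640 with 10% FBS (or a special medium) at 37° C, 5% CO2 were treated 24 hours after seeding for 72 hours with 10 concentrations (3.16-fold dilutions, 0.1% DMSO final). Nuclei were dye-stained and imaged; IC50 was fit from percent of control relative cell count.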

SW620 = assay: OncoPanel cytotoxicity assay; assay type: cell-based; conditions: Homo sapiens, SW-620, 72 hour incubation
Outline: as §1

CTG-0069 Colorectal = assay: Champions TumorGraft model, tumor growth inhibition; assay type: in vivo, mice; conditions: 100 mg/kg/dose p.o./qd × 10, TGI evaluation Day 11
Source text: (§2) Patient-derived xenograft models (Champions TumorGraftTM; Champions Oncology, Inc., Hackensack, N.J.) were used. Champions TumorGraftsTM provide a highly focused, accelerated translational platform, which is based upon the implantation of primary human tumors in immune-deficient mice followed by propagation of the resulting low-passage Champions TumorGraftsTM in a manner that preserves the biological characteristics of the original human tumor. […] The TumorGraftsTM models allow a comparison of gene expression analysis of patients' cancer samples and Champions TumorGraftTM samples by microarray expression analysis. Large numbers (e.g., 30,000) of genes are analyzed. […] Female immunocompromised nu/nu mice (Harlan) between 6-9 weeks of age were housed on irradiated […]-enriched 1⁄8'' corncob bedding ([…]) in individual HEPA ventilated cages (Innocage® IVC, Innovive USA) and were kept on a 12-hour light-dark cycle at 68-74° F. (20-23° C.) and 30-70% humidity. Animals were fed water ad libitum (reverse osmosis, 2 ppm C12) and an irradiated Test rodent diet (Teklad 2919) consisting of 19% protein, 9% fat, and 4% fiber. Animals were implanted bilaterally in the flank region with tumor fragments harvested from tumored host animals, each implanted from a specific passage lot. Pre-study tumor volumes were recorded for each experiment beginning approximately one week prior to its estimated start date. When tumors reached approximately 125-250 mm^3, animals were matched by tumor volume into treatment and control groups, and dosing was initiated (Day 0). Animals in all studies were tagged and followed individually throughout the experiment. Initial dosing for standard agents began on Day 0; animals in all groups were dosed by weight (0.01 ml per gram; 10 ml/kg). Dose concentration(s), route(s) of administration and schedule(s) for each group are listed in the Experimental Design section, wherein “p.o./qd×10” indicates orally (by mouth) daily for 10 days. The experimental design of the human tumor graft model study is presented below in Table 4. “n” indicates the number of animals per group; “ROA” indicates route of administration of the test agent, i.e., the MDM2i drug. Beginning on Day 0, tumor dimensions were measured twice weekly by digital caliper and data including individual and mean estimated tumor volumes (Mean TV±SEM) were recorded for each group. Tumor volume was calculated using the formula (1): TV=width^2×length×0.52. At study completion, percent tumor growth inhibition (% TGI) values were calculated and reported for each treatment group (T) versus control (C) using initial (i) and final (f) tumor measurements and the formula (2): % TGI=1-Tf-Ti/Cf-C. The tumor growth inhibition (TGI) values on the scheduled dates closest to the last administration are summarized Table 5 below. In this example, the study duration was defined by the tumor size of the vehicle control. In some cases, for example, that of CTG-0213 in Table 5, required a longer time period for the tumor to reach a threshold size. As a result, the test animals treated with the MDM2i Compound B were also left for a longer time period, e.g., 40 days in the case of CTG-0213, without MDM2i treatment. […] Thus, the evaluation of TGI was set to be near the end of the treatment period, such as around Day 7-11 (around Day 9).

CTG-0093 Colorectal = assay: as above; assay type: in vivo, mice; conditions: 100 mg/kg/dose p.o./qd × 10, TGI evaluation Day 9
Source text: as §2

CTG-0159 NSCLC = assay: as above; assay type: in vivo, mice; conditions: 100 mg/kg/dose p.o./qd × 10, TGI evaluation Day 11
Source text: as §2

CTG-0201 Melanoma = assay: as above; assay type: in vivo, mice; conditions: 100 mg/kg/dose p.o./qd × 10, TGI evaluation Day 10
Source text: as §2

CTG-0203 Melanoma = assay: as above; assay type: in vivo, mice; conditions: 100 mg/kg/dose p.o./qd × 10, TGI evaluation Day 11
Source text: as §2

CTG-0204 Melanoma = assay: as above; assay type: in vivo, mice; conditions: 100 mg/kg/dose p.o./qd × 10, TGI evaluation Day 10
Source text: as §2

CTG-0213 Melanoma = assay: as above; assay type: in vivo, mice; conditions: 100 mg/kg/dose p.o./qd × 10, TGI evaluation Day 7
Source text: as §2

CTG-0282 Pancreatic = assay: as above; assay type: in vivo, mice; conditions: 100 mg/kg/dose p.o./qd × 10, TGI evaluation Day 11
Source text: as §2

CTG-0292 Pancreatic = assay: as above; assay type: in vivo, mice; conditions: 100 mg/kg/dose p.o./qd × 10, TGI evaluation Day 11
Source text: as §2

CTG-0500 Melanoma = assay: as above; assay type: in vivo, mice; conditions: 100 mg/kg/dose p.o./qd × 10, TGI evaluation Day 7
Source text: as §2

CTG-0501 Melanoma = assay: as above; assay type: in vivo, mice; conditions: 100 mg/kg/dose p.o./qd × 10, TGI evaluation Day 11
Source text: as §2

CTG-0502 NSCLC = assay: as above; assay type: in vivo, mice; conditions: 100 mg/kg/dose p.o./qd × 10, TGI evaluation Day 10
Source text: as §2

SMILES	IC50 (HuCCT1)	IC50 (SW620)	% TGI (CTG-0069 Colorectal)	% TGI (CTG-0093 Colorectal)	% TGI (CTG-0159 NSCLC)	% TGI (CTG-0201 Melanoma)	% TGI (CTG-0203 Melanoma)	% TGI (CTG-0204 Melanoma)	% TGI (CTG-0213 Melanoma)	% TGI (CTG-0282 Pancreatic)	% TGI (CTG-0292 Pancreatic)	% TGI (CTG-0500 Melanoma)	% TGI (CTG-0501 Melanoma)	% TGI (CTG-0502 NSCLC)
CC[C@@H]1CNC2(CC2)CN1C(=O)[C@@H]1C[C@@H](F)CN1C(=O)C1=C(C(C)C)N2C(=N[C@@](C)(c3ccc(Cl)nc3)[C@H]2c2ccc(Cl)c(F)c2)S1 [Compound A, [(5R,6S)-5-(4-Chloro-3-fluorophenyl)-6-(6-chloropyridin-3-yl)-6-methyl-3-(propan-2-yl)-5,6-dihydroimidazo[2,1-b][1,3]thiazol-2-yl][(2S,4R)-2-{[(6R)-6-ethyl-4,7-diazaspiro[2.5]oct-7-yl]carbonyl}-4-fluoropyrrolidin-1-yl]methanone]	> 40 µM	> 40 µM												
CC1(C)CCC2(CC1)N[C@@H](C(=O)N[C@@H]1CC[C@@H](C(N)=O)OC1)[C@H](c1ccnc(Cl)c1F)[C@]21C(=O)Nc2cc(Cl)ccc21 [Compound B, (3′R,4′S,5′R)—N-[(3R,6S)-6-carbamoyltetrahydro-2H-pyran-3-yl]-6″-chloro-4′-(2-chloro-3-fluoropyridin-4-yl)-4,4-dimethyl-2″-oxo-1″,2″-dihydrodispiro[cyclohexane-1,2′-pyrrolidine-3′,3″-indole]-5′-carboxamide]	> 10 µM	7.12 µM	19%	53%	−13%	−10%	98%	51%	87%	−30%	54%	104%	101%	122%
